Where “and” joins values, the source holds several entries; their conditions need not be identical. Equal entries are not always repeated. Toxic doses and inconclusive results are not listed.
Test system: CD2F1 mice, L1210 leukemia ip, survival T/C
Test: NCI In Vivo Anticancer Drug Screen. Data for tumor model L1210 Leukemia (intraperitoneal) in CD2F1 (CDF1) mice
Details: higher = longer survival
Summary of the method: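 In this screen, transplantable tumors were grown in mice given either the compound or its vehicle. Results were expressed as the treated measurement relative to the control measurement.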

[1] = endpoint: mean survival time, dose: 100.0 mg/kg/injection, schedule: Q04DX002 (ip), vehicle: saline with Tween-80
[2] = endpoint: mean survival time, dose: 200.0 mg/kg/injection, schedule: Q04DX002 (ip), vehicle: saline with Tween-80
[3] = endpoint: mean survival time, dose: 400.0 mg/kg/injection, schedule: Q04DX002 (ip), vehicle: saline with Tween-80
[4] = endpoint: mean survival time, dose: 25.0 mg/kg/injection, schedule: Q01DX009 (ip), vehicle: saline
[5] = endpoint: mean survival time, dose: 50.0 mg/kg/injection, schedule: Q01DX009 (ip), vehicle: saline
[6] = endpoint: mean survival time, dose: 100.0 mg/kg/injection, schedule: Q01DX009 (ip), vehicle: saline
[7] = endpoint: mean survival time, dose: 100.0 mg/kg/injection, schedule: Q01DX001 (ip), vehicle: saline with Tween-80
[8] = endpoint: mean survival time, dose: 200.0 mg/kg/injection, schedule: Q01DX001 (ip), vehicle: saline with Tween-80
[9] = endpoint: mean survival time, dose: 400.0 mg/kg/injection, schedule: Q01DX001 (ip), vehicle: saline with Tween-80
[10] = endpoint: mean survival time, dose: 100.0 mg/kg/injection, schedule: Q04DX003 (ip), vehicle: saline with Tween-80
[11] = endpoint: mean survival time, dose: 200.0 mg/kg/injection, schedule: Q04DX003 (ip), vehicle: saline with Tween-80
[12] = endpoint: mean survival time, dose: 400.0 mg/kg/injection, schedule: Q04DX003 (ip), vehicle: saline with Tween-80
[13] = endpoint: mean survival time, dose: 25.0 mg/kg/injection, schedule: Q04DX003 (ip), vehicle: saline with Tween-80
[14] = endpoint: mean survival time, dose: 50.0 mg/kg/injection, schedule: Q04DX003 (ip), vehicle: saline with Tween-80
[15] = endpoint: mean survival time, dose: 100.0 mg/kg/injection, schedule: Q01DX009 (ip), vehicle: saline with Tween-80
[16] = endpoint: mean survival time, dose: 75.0 mg/kg/injection, schedule: Q01DX001 (ip), vehicle: saline
[17] = endpoint: mean survival time, dose: 150.0 mg/kg/injection, schedule: Q01DX001 (ip), vehicle: saline
[18] = endpoint: mean survival time, dose: 12.5 mg/kg/injection, schedule: Q01DX009 (ip), vehicle: saline
[19] = endpoint: mean survival time, dose: 200.0 mg/kg/injection, schedule: Q01DX009 (ip), vehicle: saline
[20] = endpoint: mean survival time, dose: 200.0 mg/kg/injection, schedule: Q01DX009 (ip), vehicle: saline with Tween-80
[21] = endpoint: mean survival time, dose: 400.0 mg/kg/injection, schedule: Q01DX009 (ip), vehicle: saline with Tween-80

O=C(CCN1CC1)Nc1cccc(NC(=O)CCN2CC2)c1
T/C (endpoint: mean survival time, dose: 2.5 mg/kg/injection, schedule: Q01DX009 (ip), vehicle: Klucel (hydroxypropylcellulose) (HPC)): 118 % of control
T/C (endpoint: mean survival time, dose: 4.0 mg/kg/injection, schedule: Q01DX009 (ip), vehicle: Klucel (hydroxypropylcellulose) (HPC)): 112 % of control
T/C (endpoint: mean survival time, dose: 10.0 mg/kg/injection, schedule: Q01DX009 (ip), vehicle: Klucel (hydroxypropylcellulose) (HPC)): 156 % of control and 165 % of control
T/C (endpoint: mean survival time, dose: 15.0 mg/kg/injection, schedule: Q01DX009 (ip), vehicle: Klucel (hydroxypropylcellulose) (HPC)): 108 % of control
T/C (endpoint: mean survival time, dose: 20.0 mg/kg/injection, schedule: Q01DX009 (ip), vehicle: Klucel (hydroxypropylcellulose) (HPC)): 96 % of control and 104 % of control

COc1ccccc1NC(=O)Oc1ccc(C(C)(C)C)cc1
T/C [1]: 96 % of control
T/C [2]: 88 % of control
T/C [3]: 100 % of control

C#CC(C)O (configuration not stated)
T/C [4]: 96 % of control
T/C [5]: 89 % of control

O=S(=O)(O)NC1CCCCC1
T/C [4]: 96 % of control
T/C [5]: 95 % of control
T/C [6]: 91 % of control and 93 % of control

NC(=O)C1CC1c1ccccc1 (configuration not stated)
T/C [7]: 100 % of control
T/C [8]: 102 % of control
T/C [9]: 96 % of control

CCOC(=O)/C(C#N)=C1\CCCc2ccccc21
T/C (endpoint: mean survival time, dose: 100.0 mg/kg/injection, schedule: Q04DX003 (ip), vehicle: acetone): 94 % of control
T/C (endpoint: mean survival time, dose: 200.0 mg/kg/injection, schedule: Q04DX003 (ip), vehicle: acetone): 91 % of control

FC(F)(F)Cc1cccc(C(F)(F)F)c1
T/C [10]: 109 % of control
T/C [11]: 108 % of control
T/C [12]: 100 % of control

N#CC1CC(c2cccs2)Nc2ccccc2N1 (configuration not stated)
T/C [10]: 94 % of control
T/C [11]: 90 % of control
T/C [12]: 100 % of control

O=c1cc(C(F)(F)F)[nH]c2ccc(Br)cc12
T/C (endpoint: mean survival time, dose: 12.5 mg/kg/injection, schedule: Q04DX003 (ip), vehicle: saline with Tween-80): 97 % of control
T/C [13]: 95 % of control
T/C [14]: 97 % of control

CCN(CC)CCCC(C)NC(c1ccc2c(c1)Sc1ccccc1O2)[P+](=O)O (configuration not stated)
T/C (endpoint: mean survival time, dose: 50.0 mg/kg/injection, schedule: Q04DX002 (ip), vehicle: saline with Tween-80): 97 % of control
T/C (endpoint: mean survival time, dose: 100.0 mg/kg/injection, schedule: Q01DX001 (ip), vehicle: saline sonified): 95 % of control
T/C [1]: 90 % of control
T/C (endpoint: mean survival time, dose: 200.0 mg/kg/injection, schedule: Q01DX001 (ip), vehicle: saline sonified): 91 % of control
T/C [2]: 97 % of control

CC(C)NC(=O)C1CC2c3cccc4[nH]cc(c34)CC2N(C)C1 (configuration not stated)
T/C (endpoint: mean survival time, dose: 25.0 mg/kg/injection, schedule: Q01DX009 (ip), vehicle: saline with Tween-80): 101 % of control
T/C (endpoint: mean survival time, dose: 50.0 mg/kg/injection, schedule: Q01DX009 (ip), vehicle: saline with Tween-80): 98 % of control
T/C [14]: 96 % of control
T/C [15]: 102 % of control
T/C [10]: 105 % of control

COc1ccc(/C=N\O)cc1OC
T/C [10]: 101 % of control
T/C [11]: 98 % of control
T/C [12]: 87 % of control

C[N+](C)(C)CCCNC(=O)Nc1ccc(Cl)cc1
T/C (endpoint: mean survival time, dose: 6.25 mg/kg/injection, schedule: Q04DX002 (ip), vehicle: saline): 106 % of control
T/C (endpoint: mean survival time, dose: 25.0 mg/kg/injection, schedule: Q04DX002 (ip), vehicle: saline): 100 % of control

CCCCCCCCCCCCNCCC(=O)O
T/C [16]: 93 % of control
T/C [17]: 93 % of control

CN=C(N)/N=C(\N)C(Cl)(Cl)Cl
T/C (endpoint: mean survival time, dose: 100.0 mg/kg/injection, schedule: Q01DX001 (ip), vehicle: saline): 111 % of control
T/C (endpoint: mean survival time, dose: 200.0 mg/kg/injection, schedule: Q01DX001 (ip), vehicle: saline): 86 % of control
T/C (endpoint: mean survival time, dose: 400.0 mg/kg/injection, schedule: Q01DX001 (ip), vehicle: saline): 90 % of control

Cc1cn(C2CCC(CO)C2)c(=O)[nH]c1=O (configuration not stated)
T/C (endpoint: mean survival time, dose: 100.0 mg/kg/injection, schedule: Q01DX001 (ip), vehicle: carboxymethylcellulose (CMC)): 95 % of control
T/C (endpoint: mean survival time, dose: 200.0 mg/kg/injection, schedule: Q01DX001 (ip), vehicle: carboxymethylcellulose (CMC)): 95 % of control
T/C (endpoint: mean survival time, dose: 400.0 mg/kg/injection, schedule: Q01DX001 (ip), vehicle: carboxymethylcellulose (CMC)): 103 % of control

NC(=S)/C(N)=N/Nc1ccc(Cl)cc1
T/C (endpoint: mean survival time, dose: 0.39 mg/kg/injection, schedule: Q01DX009 (ip), vehicle: saline): 101 % of control
T/C (endpoint: mean survival time, dose: 0.78 mg/kg/injection, schedule: Q01DX009 (ip), vehicle: saline): 104 % of control
T/C (endpoint: mean survival time, dose: 1.56 mg/kg/injection, schedule: Q01DX009 (ip), vehicle: saline): 108 % of control
T/C (endpoint: mean survival time, dose: 3.12 mg/kg/injection, schedule: Q01DX009 (ip), vehicle: saline): 107 % of control
T/C (endpoint: mean survival time, dose: 6.25 mg/kg/injection, schedule: Q01DX009 (ip), vehicle: saline): 96 % of control and 110 % of control
T/C [18]: 113 % of control and 93 % of control
T/C [4]: 100 % of control
T/C [5]: 100 % of control

C[n+]1cc(Br)c2ccccc2c1
T/C [16]: 100 % of control
T/C [17]: 103 % of control

CC(C)(C)CC(C)(C)NCC(O)COc1ccc(C(C)(C)c2ccc(OCC(O)CNC(C)(C)CC(C)(C)C)cc2)cc1 (configuration not stated)
T/C (endpoint: mean survival time, dose: 3.0 mg/kg/injection, schedule: Q01DX009 (ip), vehicle: saline with Tween-80): 102 % of control
T/C (endpoint: mean survival time, dose: 3.12 mg/kg/injection, schedule: Q01DX009 (ip), vehicle: Klucel (hydroxypropylcellulose) (HPC)): 93 % of control
T/C (endpoint: mean survival time, dose: 6.0 mg/kg/injection, schedule: Q01DX009 (ip), vehicle: saline with Tween-80): 100 % of control
T/C (endpoint: mean survival time, dose: 6.25 mg/kg/injection, schedule: Q01DX009 (ip), vehicle: Klucel (hydroxypropylcellulose) (HPC)): 94 % of control
T/C (endpoint: mean survival time, dose: 12.0 mg/kg/injection, schedule: Q01DX009 (ip), vehicle: saline with Tween-80): 94 % of control
T/C (endpoint: mean survival time, dose: 12.5 mg/kg/injection, schedule: Q01DX009 (ip), vehicle: Klucel (hydroxypropylcellulose) (HPC)): 100 % of control

COc1ccc(NC(=O)Nc2cc(OC)c(Cl)cc2OC)cc1
T/C [1]: 96 % of control
T/C [2]: 89 % of control
T/C [3]: 89 % of control

Oc1cccc2c1NCCC2
T/C [13]: 104 % of control
T/C [14]: 98 % of control
T/C [10]: 91 % of control and 102 % of control

NCCNCCNCc1ccccc1
T/C [6]: 94 % of control
T/C [19]: 107 % of control

COc1ccc(NC(=O)Nc2ccc(Br)cc2)cc1
T/C [15]: 88 % of control
T/C [10]: 96 % of control
T/C [20]: 89 % of control
T/C [11]: 98 % of control
T/C [21]: 89 % of control

O=c1nc(NCc2ccco2)ccn1C1OC(CO)C(O)C1O (configuration not stated)
T/C (endpoint: median survival time, dose: 12.5 mg/kg/injection, schedule: Q01DX005 (ip), vehicle: water): 98 % of control
T/C (endpoint: median survival time, dose: 25.0 mg/kg/injection, schedule: Q01DX005 (ip), vehicle: water): 106 % of control
T/C (endpoint: median survival time, dose: 50.0 mg/kg/injection, schedule: Q01DX005 (ip), vehicle: water): 112 % of control
T/C (endpoint: median survival time, dose: 100.0 mg/kg/injection, schedule: Q01DX005 (ip), vehicle: water): 112 % of control
T/C (endpoint: median survival time, dose: 200.0 mg/kg/injection, schedule: Q01DX005 (ip), vehicle: water): 108 % of control

COc1ccc(C(=O)CC(C(=O)O)c2ccc3c(c2)OCO3)cc1OC (configuration not stated)
T/C [10]: 101 % of control
T/C [11]: 101 % of control
T/C [12]: 101 % of control

O=[N+]([O-])c1cc(Br)cc(Br)c1[N+](=O)[O-]
T/C [7]: 97 % of control
T/C [15]: 102 % of control
T/C [8]: 89 % of control
T/C [20]: 102 % of control
T/C [9]: 95 % of control
T/C [21]: 98 % of control

O=C(COc1ccc(Cl)cc1Cl)Nc1cccc(Cl)c1
T/C [1]: 101 % of control
T/C [2]: 101 % of control
T/C [3]: 93 % of control

CCCCCCCCCCCCNC(=O)c1cc[n+](C)cc1
T/C [18]: 95 % of control
T/C (endpoint: mean survival time, dose: 12.5 mg/kg/injection, schedule: Q04DX003 (ip), vehicle: saline): 98 % of control
T/C (endpoint: mean survival time, dose: 25.0 mg/kg/injection, schedule: Q04DX003 (ip), vehicle: saline): 95 % of control
T/C (endpoint: mean survival time, dose: 50.0 mg/kg/injection, schedule: Q04DX003 (ip), vehicle: saline): 94 % of control

O=c1ccnc(C(F)(F)F)[nH]1
T/C [6]: 101 % of control
T/C [19]: 95 % of control
